{"source": "paper PMC12078333", "about": "“Pharmacokinetic evaluation and bioavailability of KPT-335 (Verdinexor) in cats” (Frontiers in Veterinary Science, 2025)", "test": "Pharmacokinetics study of KPT-335 in cats (i.v. injection, p.o. capsules and tablets; UPLC-MS/MS, non-compartmental analysis)", "assay_type": "in vivo", "conditions": "cats; for bioavailability / k el / Tmax / MRT last / AUC(0-inf) / AUC(0-t) / Cmax: both sexes, plasma, po; for k el: read-out: Lambda_z (converted); for Tmax: read-out: Tmax; for AUC(0-inf): read-out: AUCINF_obs; for AUC(0-t): read-out: AUClast; for Cmax: read-out: Cmax; for Plasma concentration: individual cats 1-6", "description": "In this study, a parallel trial design was employed, 42 adult domestic cats (21 males and 21 females), aged 1 to 2 years and weighing 2.5 ± 0.25 kg. Cats were grouped by random number, with half male and female in each group, and all cats were determined to be systemically healthy during an initial screening visit 1 week prior to the experiment. They were acclimatized to the laboratory environment for 7 days before the study commenced. During this period, they were kept in solitary cages with free access to water. Cats in the fasting group were deprived of food for 12 h prior to and 2 h following drug administration, while those in the feeding group were fed twice a day. Food and water sources were consistent throughout the trail. During and at the end of the experiment, we systematically assessed the adverse reactions by recording parameters such as body weight, behavior, and coat gloss in all test cats both before and after the trial. These observations were conducted to evaluate whether any adverse reactions occurred. All procedures were reviewed and approved by the Institutional Animal Care and Use Committee of China Agricultural University (11305-23-E-002).\nThe UPLC-MS/MS system utilized a UPLC 1290 (Agilent) paired with a Phenomenex Kinetex C18 column (50 mm × 2.1 mm, 2.6 μm) for separation at a flow rate of 0.3 mL/min. The chromatographic mobile phase comprised water (A) and acetonitrile (B), both containing 0.1% formic acid. The gradient elution program was as follows: from 0.5 to 2.5 min, 10 to 95% B; from 2.5 to 4.5 min, 95% B; from 4.5 to 4.6 min, 95 to 10% B; and from 4.6 to 6.0 min, 10% B. The injection volume was 2 μL.\nFor mass spectrometry, an Agilent 6,475-LC-TQ equipped with an electrospray ion source was used. Multiple Reaction Monitoring (MRM) was selected to quantify KPT-335 in the positive ion mode. The ion transitions monitored were m/z 443.1 → 334.0 and 443.1 → 110.1 for KPT-335, and m/z 444.1 → 334.0 for the internal standard (IS). The cone voltage and collision energy were optimized for KPT-335 and the IS individually, set at 160 V and 25 eV, respectively. The optimized parameters for the instrument included an ion source temperature of 350°C, solvent removal temperature of 320°C, capillary voltage of 3.0 kV, and a solvent gas flow rate of 300 L/h.\nThe method was developed based on prior research conducted in the laboratory ([16]) and validated in accordance with international guidelines ([17]). The calibration concentration range for KPT-335 spanned from 0.5 to 100 ng/mL, with a lower limit of quantification (LLOQ) set at 0.5 ng/mL. The squared correlation coefficient (R^2) values exceeded 0.999, indicating high linearity.\nFor sample preparation, 100 μL of plasma was mixed with 10 μL of internal standard (IS) and 900 μL of acetonitrile, followed by vortexing for 2 min. The mixture was then centrifuged at 13,400 × g at 4°C for 10 min. The supernatant was filtered through a 0.22 μm organic membrane, and the resulting sample was analyzed using UPLC-MS/MS.\nCats were divided into seven groups, with six cats in each group. In the intravenous (i.v.) group (Group 1), cats received an injection of KPT-335 at a dosage of 1 mg/kg body weight (BW), administered via a bolus through a venous infusion needle. For the oral (p.o.) administration, cats were given capsules in a fasting state at doses of 0.2 mg/kg BW (Group 2), 1 mg/kg BW (Group 3), and 2 mg/kg BW (Group 4). Additionally, tablets were administered at 1 mg/kg BW (fasting, Group 5), 1 mg/kg BW (Group 6), and 2 mg/kg BW (Group 7) in a feeding state, followed by 3 mL of water delivered with a syringe.\nFor the p.o. administration, blood samples of 1.5 mL were collected via the brachial cephalic vein prior to administration and at 0.167, 0.333, 0.5, 0.75, 1, 1.5, 2, 4, 6, 8, 12, 24, 32, and 48 h post-administration. […]", "key": {"[1]": {"conditions": "0.2 mg/kg, p.o., Capsule, Fasting, 0.2 mg/kg BW"}, "[2]": {"conditions": "1 mg/kg, p.o., Capsule, Fasting, 1 mg/kg BW"}, "[3]": {"conditions": "1 mg/kg, p.o., Tablet, Fasting, 1 mg/kg BW"}, "[4]": {"conditions": "1 mg/kg, p.o., Tablet, Feeding, 1 mg/kg BW"}, "[5]": {"conditions": "2 mg/kg, p.o., Capsule, Fasting, 2 mg/kg BW"}, "[6]": {"conditions": "2 mg/kg, p.o., Tablet, Feeding, 2 mg/kg BW"}, "[7]": {"conditions": "capsule group, 0.2–2 mg/kg BW, reference 95% CI 0.90–1.10"}}, "note": "Where “and” joins values, the source holds several entries; their conditions need not be identical. Equal values may be shown once. Read-outs that look alike come from different tables or passages of the source."}
{"smiles": "O=C(/C=C\\n1cnc(-c2cc(C(F)(F)F)cc(C(F)(F)F)c2)n1)NNc1ccccn1", "note": "[KPT-335]", "values": [{"measurement": "bioavailability", "setting": "0.2 mg/kg, p.o., Capsule, Fasting, 0.2 mg/kg BW, read-out: F (absolute bioavailability)", "value": 43.7, "unit": "%"}, {"measurement": "k el", "setting": "[1]", "value": "3.33e-05", "unit": "s⁻¹"}, {"measurement": "Tmax", "setting": "[1]", "value": "2.46 ± 2.75", "unit": "h"}, {"measurement": "MRT last", "setting": "1 mg/kg, Capsule, Fasting, 1 mg/kg BW", "value": "5.94 ± 1.05", "unit": "h"}, {"measurement": "MRT last", "setting": "1 mg/kg, Tablet, Fasting, 1 mg/kg BW", "value": "8.07 ± 1.73", "unit": "h"}, {"measurement": "MRT last", "setting": "1 mg/kg, Tablet, Feeding, 1 mg/kg BW", "value": "5.8 ± 1.61", "unit": "h"}, {"measurement": "bioavailability", "setting": "1 mg/kg, doses of 1 mg/kg BW, read-out: bioavailability of commercial tablets", "value": "~70", "unit": "%"}, {"measurement": "AUC(0-inf)", "setting": "[2]", "value": "1420 ± 490", "unit": "ng·h/mL"}, {"measurement": "AUC(0-t)", "setting": "[2]", "value": "1420 ± 489", "unit": "ng·h/mL"}, {"measurement": "Cmax", "setting": "[2]", "value": "260 ± 75", "unit": "ng/mL"}, {"measurement": "bioavailability", "setting": "1 mg/kg, p.o., Capsule, Fasting, 1 mg/kg BW, read-out: F (absolute bioavailability)", "value": 44.7, "unit": "%"}, {"measurement": "k el", "setting": "[2]", "value": "3.61e-05", "unit": "s⁻¹"}, {"measurement": "Tmax", "setting": "[2]", "value": "1.25 ± 0.39", "unit": "h"}, {"measurement": "AUC(0-inf)", "setting": "[3]", "value": "2430 ± 805", "unit": "ng·h/mL"}, {"measurement": "AUC(0-t)", "setting": "[3]", "value": "2410 ± 793", "unit": "ng·h/mL"}, {"measurement": "Cmax", "setting": "[3]", "value": "264 ± 129", "unit": "ng/mL"}, {"measurement": "bioavailability", "setting": "1 mg/kg, p.o., Tablet, Fasting, 1 mg/kg BW, read-out: F (absolute bioavailability)", "value": 75.9, "unit": "%"}, {"measurement": "k el", "setting": "[3]", "value": "3.61e-05", "unit": "s⁻¹"}, {"measurement": "Tmax", "setting": "[3]", "value": "1.79 ± 1.17", "unit": "h"}, {"measurement": "AUC(0-inf)", "setting": "[4]", "value": "2270 ± 1260", "unit": "ng·h/mL"}, {"measurement": "AUC(0-t)", "setting": "[4]", "value": "2250 ± 1260", "unit": "ng·h/mL"}, {"measurement": "Cmax", "setting": "[4]", "value": "364 ± 145", "unit": "ng/mL"}, {"measurement": "bioavailability", "setting": "1 mg/kg, p.o., Tablet, Feeding, 1 mg/kg BW, read-out: F (absolute bioavailability)", "value": 71, "unit": "%"}, {"measurement": "k el", "setting": "[4]", "value": "5e-05", "unit": "s⁻¹"}, {"measurement": "Tmax", "setting": "[4]", "value": "1.33 ± 0.41", "unit": "h"}, {"measurement": "MRT last", "setting": "2 mg/kg, Capsule, Fasting, 2 mg/kg BW", "value": "7.57 ± 1.94", "unit": "h"}, {"measurement": "MRT last", "setting": "2 mg/kg, Tablet, Feeding, 2 mg/kg BW", "value": "5.07 ± 0.69", "unit": "h"}, {"measurement": "AUC(0-inf)", "setting": "[5]", "value": "1850 ± 819", "unit": "ng·h/mL"}, {"measurement": "AUC(0-t)", "setting": "[5]", "value": "1840 ± 819", "unit": "ng·h/mL"}, {"measurement": "Cmax", "setting": "[5]", "value": "280 ± 175", "unit": "ng/mL"}, {"measurement": "bioavailability", "setting": "2 mg/kg, p.o., Capsule, Fasting, 2 mg/kg BW, read-out: F (absolute bioavailability)", "value": 28.9, "unit": "%"}, {"measurement": "k el", "setting": "[5]", "value": "2.78e-05", "unit": "s⁻¹"}, {"measurement": "Tmax", "setting": "[5]", "value": "1.58 ± 0.38", "unit": "h"}, {"measurement": "AUC(0-inf)", "setting": "[6]", "value": "3010 ± 715", "unit": "ng·h/mL"}, {"measurement": "AUC(0-t)", "setting": "[6]", "value": "3000 ± 711", "unit": "ng·h/mL"}, {"measurement": "Cmax", "setting": "[6]", "value": "559 ± 104", "unit": "ng/mL"}, {"measurement": "bioavailability", "setting": "2 mg/kg, p.o., Tablet, Feeding, 2 mg/kg BW, read-out: F (absolute bioavailability)", "value": 47.3, "unit": "%"}, {"measurement": "k el", "setting": "[6]", "value": "5.83e-05", "unit": "s⁻¹"}, {"measurement": "Tmax", "setting": "[6]", "value": "1.58 ± 0.2", "unit": "h"}, {"measurement": "bioavailability", "setting": "doses of 0.2–1 mg/kg BW, read-out: absolute bioavailability of capsules", "value": "~40", "unit": "%"}, {"measurement": "dose linearity of pharmacokinetics", "setting": "0.2–2 mg/kg BW dosage range", "value": "not to exhibit linear pharmacokinetics"}, {"measurement": "differences in pharmacokinetic parameters (Cmax and AUClast) between male and female cats", "setting": "all groups", "value": "no statistically significant differences"}, {"measurement": "95% confidence interval of β, dose vs AUClast", "setting": "[7]", "value": "0.63–1.11"}, {"measurement": "95% confidence interval of β, dose vs Cmax", "setting": "[7]", "value": "0.79–1.30"}, {"measurement": "Plasma concentration", "setting": "capsule p.o. 0.2 mg/kg BW, 1.5 h, 0.2 mg/kg, in ng/mL", "value": "15.20 and 20.46 and 38.22 and 14.31 and 22.72 and 26.72"}, {"measurement": "Plasma concentration", "setting": "capsule p.o. 0.2 mg/kg BW, 2 h, 0.2 mg/kg, in ng/mL", "value": "13.60 and 18.16 and 33.66 and 26.22 and 20.79 and 22.21"}, {"measurement": "Plasma concentration", "setting": "capsule p.o. 0.2 mg/kg BW, 4 h, 0.2 mg/kg", "value": 8.71, "unit": "ng/mL"}, {"measurement": "Plasma concentration", "setting": "capsule p.o. 0.2 mg/kg BW, 4 h, 0.2 mg/kg, in ng/mL", "value": "14.86 and 24.97 and 21.41 and 17.43 and 19.90"}, {"measurement": "Plasma concentration", "setting": "capsule p.o. 0.2 mg/kg BW, 6 h, 0.2 mg/kg", "value": 6.19, "unit": "ng/mL"}, {"measurement": "Plasma concentration", "setting": "capsule p.o. 0.2 mg/kg BW, 6 h, 0.2 mg/kg, in ng/mL", "value": "20.30 and 16.23 and 18.02 and 15.34"}, {"measurement": "Plasma concentration", "setting": "capsule p.o. 0.2 mg/kg BW, 32 h, 0.2 mg/kg", "value": "BLOQ"}, {"measurement": "Plasma concentration", "setting": "capsule p.o. 0.2 mg/kg BW, 48 h", "value": "BLOQ"}, {"measurement": "Plasma concentration", "setting": "capsule p.o. 1 mg/kg BW, 48 h, 1 mg/kg", "value": "BLOQ"}, {"measurement": "Plasma concentration", "setting": "i.v. 1 mg/kg BW, 0.083 h, 1 mg/kg, in ng/mL", "value": "1162.77 and 332.48 and 914.52 and 894.65 and 827.83 and 934.74"}, {"measurement": "Plasma concentration", "setting": "i.v. 1 mg/kg BW, 0.167 h, 1 mg/kg, in ng/mL", "value": "1202.33 and 331.12 and 812.32 and 891.11 and 808.43 and 825.26"}, {"measurement": "Plasma concentration", "setting": "i.v. 1 mg/kg BW, 0.25 h, 1 mg/kg, in ng/mL", "value": "1058.99 and 320.82 and 769.91 and 863.19 and 750.36 and 838.90"}, {"measurement": "Plasma concentration", "setting": "i.v. 1 mg/kg BW, 0.33 h, 1 mg/kg, in ng/mL", "value": "996.69 and 292.96 and 774.12 and 852.52 and 723.28 and 760.14"}, {"measurement": "Plasma concentration", "setting": "i.v. 1 mg/kg BW, 0.5 h, 1 mg/kg, in ng/mL", "value": "935.15 and 297.11 and 736.77 and 700.75 and 649.99 and 680.18"}, {"measurement": "Plasma concentration", "setting": "i.v. 1 mg/kg BW, 0.75 h, 1 mg/kg, in ng/mL", "value": "709.09 and 236.62 and 633.10 and 524.38 and 509.94 and 541.50"}]}
